Results on eight compounds are retold here after patent US20040235982A1, “Polymer emulsions resistant to biodeterioration” (priority 2003, published 2004).

Counter-ions that a name gives are not always drawn. Like-named read-outs stand apart in the source and are kept apart here.

Test [1] has as its system mixed bacterial inoculum. The following applies: for Inoculations Passed: AIRFLEX 192 VAE polymer; for potentiation of the cationic compounds (in words) / preservative efficacy (in words): AIRFLEX 192; for potentiation of the cationic compounds (in words): other metal chelating agent with cationic compound. The source says:
The following procedure was used to assess the preservative efficacy of several cationic compounds in an anionic surfactant stabilized VAE copolymer emulsion containing less than 1000 ppm vinyl acetate monomer:
(§1) Aeromonas hydrophilia, Alcaligenes faecalis, Corynebacterium ammoniagenes, Enterobacter aerogenes, Escherichia coli, Klebsiella pneumoniae, Pseudomonas aeruginosa, Proteus vulgaris, Providencia rettgeri, Pseudomonas stutzeri, Shewanella putrefaciens, Serratia liquefaciens, Acinetobacter baumannii, Burkholderia cepacia, Chryseobacterium meningosepticum, Sphingobacterium spiritivorum, Ralstonia pickettii, and Gluconoacetobacter liquefaciens.
(§2) Each bacterial culture was individually grown on nutrient agar slants, except GABL was grown on potato dextrose agar slants, by inoculating the agar surfaces. The nutrient agar slants were incubated for 24-48 hours at 30° C. and the potato dextrose agar slants were incubated for 48-72 hours at 25° C. […] The washings from all of the slants were combined into one sterile, Erlenmeyer flask.
(§3) Rapid Automated Bacterial Impedance Technique (RABIT), supplied by Microbiology International, and manufactured by Don Whitley Scientific, Ltd. utilizes the principal of impedance microbiology to detect and assess microbial activity in a given sample. Using the RABIT, microbial metabolism is monitored by measuring the amount of carbon dioxide produced by actively respiring microorganisms. The electrodes in the RABIT test cells are partially covered with alkaline agar containing potassium hydroxide. As inoculated test samples are monitored on the RABIT, carbon dioxide produced from microbial metabolism is absorbed by the alkaline agar resulting in a change in conductivity. Conductivity is monitored with time and the time to reach a pre-specified rate of reduction in conductivity is termed the time to detection (TTD). Therefore, the shorter the TTD, the higher the number of microorganisms present. Failure can be defined as three successive decreases in conductivity equal to or greater than a pre-specified value (−10 microSiemens is recommended by the manufacturer) at any time during the 72 hour RABIT monitoring period. Alternatively, failure can be defined as a pre-specified total change in conductivity.
(§4) Samples (50 g each) of each test emulsion containing a test antimicrobial agent were inoculated with 1.0 mL of the mixed bacterial inoculum. After mixing well, the samples were then placed in a 30° C. incubator. After 1, 2, and 6 days of incubation, each sample was streak plated onto nutrient agar and potato dextrose agar to assess the level of surviving microorganisms. The nutrient agar plates were incubated at 30° C. for 48 hours before assessing the growth. […] On the seventh day of incubation, each test emulsion sample was inoculated again with a freshly prepared mixed bacterial inoculum, mixed well, then placed back into the incubator. The samples were again streak plated onto nutrient agar and potato dextrose agar after incubating for 1, 2, and 6 days since the second inoculation. On the fourteenth day after the test was initiated, the test emulsions were inoculated a third time with another freshly prepared mixed bacterial inoculum and then placed back into the incubator. The samples were again streak plated onto nutrient agar and potato dextrose agar after 1, 2, 6, and 13 days of incubation since the third inoculation to assess surviving microorganisms. Test failure is defined as a microbial viable count >300 CFU/10 μL observed from the nutrient agar or potato dextrose agar streak plate assessments.
(§5) A small amount of a microbial nutrient (typically yeast extract) was added to each emulsion test sample (50 g) containing a test antimicrobial agent. The resulting samples were then inoculated with 1.0 mL of the mixed bacterial inoculum. After mixing well, an aliquot (5 g) of each test sample was placed into separate RABIT indirect conductivity tubes.

Test [2] deals with mixed bacterial inoculum. The following applies: for potentiation of the cationic compounds (in words) / preservative efficacy (in words): AIRFLEX 410; for potentiation of the cationic compounds (in words): other metal chelating agent with cationic compound; for Inoculations Passed: AIRFLEX 410 VAE polymer.
Text: as §1, §2, §3, §4
as §5, with “tubes. The indirect conductivity tubes were then placed into the RABIT incubator modules set at 30° C. and the conductivity changes monitored for up to 72 hours. The remainder of each test sample was stored in a 30° C. incubator during the RABIT monitoring period.” for “tubes.”

In test [3] the test system is yeasts and molds. Briefly: Fungal biochallenge test in Airflex 410 VAE polymer emulsion. The conditions noted are these: for Growth on PDA / Surface Fungal Growth: 200 ppm; for Growth on PDA: streak plate after 28 days incubation; for Surface Fungal Growth: visual after 28 days at 25° C.
The mark [4] stands for this setting: biocide dosage 300 ppm active ingredient.
[5] abbreviates: cationic compound alone, dosage of 300 ppm or similar dosages.
The mark [6] stands for this setting: metal chelating agent by itself.
The mark [7] stands for this setting: biocide dosage 1000 ppm active ingredient.

Regarding `O=C([O-])c1ccccc1O.[Na+]` [Salicylic acid, sodium salt], the “Inoculations Passed” value in test [1] (setting [4]) stood at 0.

Turning to `O=C(O)CC(O)(CC(=O)O)C(=O)O` [Citric acid, sodium salt], the “potentiation of the cationic compounds (in words)” value in test [1] and in test [2] was “do not exhibit potentiation” each time. The “Inoculations Passed” value in test [1] (setting [4]) amounted to 0.

`CCCCCCCCCC[N+](C)(C)CCCCCCCCCC.[Cl-]` [BTC 1010, Didecyldimethylammonium chloride]: the “preservative efficacy (in words)” value in test [1] (setting [5]) and in test [2] (setting [5]) was “no preservative efficacy” throughout. In addition, the “Inoculations Passed” value in test [1] (setting [4]) and in test [2] (setting [4]) was 0 each time. Further, the “Growth on PDA” value in test [3] is “Dense”. Also, the “Surface Fungal Growth” value in test [3] is “Moderate Growth”.

Take `O=C([O-])CN(CCN(CC(=O)[O-])CC(=O)[O-])CC(=O)[O-].[Na+].[Na+].[Na+].[Na+]` [EDTA salt, tetrasodium salt of ethylenediamine tetraacetic acid]: the “preservative efficacy (in words)” value in test [1] (setting [6]) and in test [2] (setting [6]) was “inadequate” throughout. The “Inoculations Passed” value in test [1] (setting [7]) and in test [2] (setting [7]) was 0 each time. In test [3], the “Growth on PDA” value is on record as “Dense”. Besides, the “Surface Fungal Growth” value in test [3] was “Slight Growth”. In addition, the “protection against the growth of yeasts and molds (in words)” value in test [3] (used by itself) is “no protection”.

For `CCCCCCCCCCCCCCCC[n+]1ccccc1` [CPC, cetylpyridinium chloride], the “Inoculations Passed” value in test [1] (setting [4]) and in test [2] (setting [4]) was 0 throughout.

Consider `O=C(O)/C=C\C(=O)O` [Maleic acid, sodium salt], for which the “potentiation of the cationic compounds (in words)” value in test [1] and in test [2] was “do not exhibit potentiation” each time. In test [1] (setting [4]), the “Inoculations Passed” value worked out at 0.

`CCCCCCCCCCCCNC(=N)N.Cl` [DGH, n-dodecylguanidine hydrochloride]: the “Inoculations Passed” value in test [1] (biocide dosage 400 ppm active ingredient) and in test [2] (setting [4]) was 0 throughout.

For the compound `O=P([O-])([O-])[O-].[Na+].[Na+].[Na+]` [Trisodium phosphate], in test [1] (setting [4]), the “Inoculations Passed” value was found to be 0.
